Values joined by “and” are separate entries in the source; they are usually repeats but may differ in a detail not shown here. Equal values may be shown once.
What was measured:
[1] = system: 1-octen-3-ol receptors OR2W1, Olfr93, Olfr120, Olfr398; test: Antagonists of 1-octen-3-ol receptors (Example 11); format: cell-based, mouse and human; set-up: Inhibition(%): concentration or dose not given beside the values; conditions: Table 19
[2] = system: geonol earthy/moss odor perception; test: Human sensory performance of test compounds with and without geonol; format: in vivo; conditions: for % Earthy/Moss Odor: Test Compound Only
Text: Sensory Evaluation: Five 16 oz glass jars containing either REF (geonol only), geonol only control, antagonist only, mixture of geonol and isointense antagonist, or mixture of geonol and low intensity antagonist were presented to the panelists (last four samples were randomized across panelists). The panelists were asked to familiarize themselves with the earthy/moss odor quality from the REF jar first, then rate the pleasantness, earthy/moss odor intensity and overall odor intensity of the next four samples on a 0-10 linear scale. The inter-stimulus interval between the samples was two minutes to avoid adaptation. […]
The results are shown in Tables 16 and 17, and FIGS. 3 to 5.

[3] = system: geonol receptors Olfr339, Olfr1487, Olfr1A1, OR11A1, Olfr96; test: Antagonists of geonol receptors (Example 11); format: cell-based, mouse and human; set-up: Inhibition(%): concentration or dose not given beside the values; conditions: Table 18
[4] = molecular target: T1, OR51E1 olfactory receptor (Homo sapiens, UniProt Q8TCB6); test: Butyric acid olfactory receptor antagonist cell-based dose-response vs butyric acid EC80; conditions: butyric acid at EC80; Table 5
T1 construct: expressed in transfected cells
T1 sequence (Q8TCB6 1-318): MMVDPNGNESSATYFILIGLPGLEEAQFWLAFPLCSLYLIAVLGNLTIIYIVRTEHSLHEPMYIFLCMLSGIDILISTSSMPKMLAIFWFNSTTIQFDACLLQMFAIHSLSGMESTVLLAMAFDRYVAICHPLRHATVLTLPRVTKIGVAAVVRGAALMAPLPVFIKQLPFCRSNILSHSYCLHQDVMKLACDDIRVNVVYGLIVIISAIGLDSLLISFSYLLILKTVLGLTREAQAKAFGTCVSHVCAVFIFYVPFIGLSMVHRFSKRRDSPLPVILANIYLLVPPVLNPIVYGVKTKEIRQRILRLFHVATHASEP

[5] = system: OR2W1 or the OR1A1 olfactory receptor; test: 1-octen-3-ol olfactory receptor antagonist cell-based dose-response vs 1-octen-3-ol EC80; conditions: for IC50: 1-octen-3-ol at EC80; for % Inhibition: maximum inhibition normalized to baseline agonist activity
Text: Each cell line was screened with a volatile compound library for their inhibitory properties and potential 1-octen-3-ol smell inhibition.
Single concentration monitoring of the 1-octen-3-ol induced cell activity in the presence or absence of a test compound allowed for the identification of compounds with a putative suppression or inhibitory effect.

[6] = Low Dilution Test Compound + Geonol (0.1%)
[7] = Medium Dilution Test Compound + Geonol (0.1%)

Compound | IC50 [1] [µM] | Inhibition(%) [1] [%] | IC50 [3] | Inhibition(%) [3] [%] | other results
CCC(O)COC1CCCCC1C(C)(C)C (centres unmarked) | 53.6 | 13 |  |  | 
CC(=O)c1c(C)c([N+](=O)[O-])c(C(C)(C)C)c([N+](=O)[O-])c1C | 84.7 | 98 |  |  | 
CCC(=CC[C@@H]1CC=C(C)C1(C)C)CO |  |  |  |  | % Earthy/Moss Odor Remaining [2, 6]: 85.20%; % Earthy/Moss Odor Remaining [2, 7]: 64.30%; % Earthy/Moss Odor [2]: 34.90%
CC1CCC2C(C)(C)C3CC12CC1OC13C (centres unmarked) | 85.6 | 91 |  |  | 
CC1COCc2cc3c(cc21)C(C)(C)C(C)C3(C)C (centres unmarked) | 65.2 | 84 | 894 µM | 56 | 
C=C1CC[C@H]2O[C@]2(C)CC[C@@H]2[C@@H]1CC2(C)C |  |  |  |  | IC50 [4]: 97 µM; IC50 [5]: 25.1 µM; % Inhibition [5]: 123.63%
CC1=C[C@@H](C)[C@@H](C=O)CC1 |  |  |  |  | % Earthy/Moss Odor Remaining [2, 6]: 80.60%; % Earthy/Moss Odor Remaining [2, 7]: 71.50%; % Earthy/Moss Odor [2]: 48.10%
CC1C2CC(CC13C=CC(=O)CC3)C2(C)C (centres unmarked) | 12.5 | 87 | 42.4 µM | 27 | 
C[C@@H]1CC[C@]2(O)C(C)(C)[C@H]3CC[C@@]2(C)[C@@H]1C3 |  |  |  |  | % Earthy/Moss Odor Remaining [2, 6]: 104.60%; % Earthy/Moss Odor Remaining [2, 7]: 129.80%; % Earthy/Moss Odor [2]: 94.10%
CC1CCC2(O)C(C)(C)C3CCC2(C)C1C3 (centres unmarked) | 81 | 70 | 34.9 µM | 68 | 
CC(=O)OC1(C)CCC23CC1C(C)(C)C2CCC3C (centres unmarked) | 72.6 | 52 |  |  | 
C=C(C[C@H](C)CO)[C@H]1CC=C(C)C1(C)C | 54.6 | 27 | 36.6 µM | 33 | 
CC1(C)CCCC2(C)C1CCC1(C)OCCC12 (centres unmarked) | 101 | 105 | 27.1 µM | 78 | 
Cc1cc2c(cc1C=O)C(C)(C)[C@H](C)[C@@H](C)C2(C)C | 83.7 | 64 |  |  | 
CC(=O)O[C@H]1CCCC[C@@H]1C(C)(C)C |  |  | 164 µM | 56 | % Earthy/Moss Odor [2]: 15.30%
CC(=O)O[C@@H]1C(C)(C)CCC[C@@]12CC=C(C)C[C@@H]2C |  |  | 267 µM | 38 | IC50 [4]: 37.7 µM
1-(2,2-dimethyl-6-methylidenecyclohexyl)pent-1-en-3-one; 3-methyl-4-(2,6,6-trimethylcyclohex-2-en-1-yl)but-3-en-2-one; 1-(2,6,6-trimethylcyclohexen-1-yl)pent-1-en-3-one; 1-(2,6,6-trimethylcyclohex-2-en-1-yl)pent-1-en-3-one | 66.8 | 56 | 136 µM | 49 | 
1-(2,6,6-trimethylcyclohexen-1-yl)hepta-1,6-dien-3-one; 1-(2,6,6-trimethylcyclohex-2-en-1-yl)hepta-1,6-dien-3-one | 35.9 | 49 | 49.1 µM | 66 | IC50 [4]: 100 µM
3-acetyloxynonyl acetate; (3-pentyloxan-4-yl) acetate |  |  | 295 µM | 20 | % Earthy/Moss Odor Remaining [2, 6]: 81.10%; % Earthy/Moss Odor Remaining [2, 7]: 62.50%; % Earthy/Moss Odor [2]: 26.20%
CC(=O)/C=C/C1C(C)=CCCC1(C)C (racemic) [(+−)-(3E)-4-(2,6,6-trimethyl-2-cyclohexen-1-yl)-3-buten-2-one] | 462 | 79 |  |  | 
CC1(C)C2C[C@H]3CCC(=O)C=C3[C@@H]1C2 (single isomer, unassigned; (+)) |  |  |  |  | IC50 [5]: 194 µM; % Inhibition [5]: 128.51%
O=C1CCCCCCCCCCCC(=O)OCCO1 [1,4-dioxacycloheptadecane-5,17-dione] | 39.3 | 38 | 31.7 µM | 21 | 
CC=CC(=O)C1=C(C)CCCC1(C)C [1-(2,6,6-trimethylcyclohexen-1-yl)but-2-en-1-one] | 477 | 72 |  |  | 
CC(CCCC(C)(C)O)CC(O)n1ccc2ccccc21 (centres unmarked) [1-indol-1-yl-3,7-dimethyloctane-1,7-diol] | 175 | 46 | 201 µM | 46 | 
CC1C(=O)c2ccccc2C1(C)C (centres unmarked) [2,3,3-trimethyl-2H-inden-1-one] |  |  |  |  | IC50 [5]: 75.6 µM; % Inhibition [5]: 128.39%
c1ccc(CCCc2ccccn2)cc1 [2-(3-phenylpropyl)pyridine] | 153 | 31 | 41 µM | 196 | 

Compound | IC50 [1] [µM] | Inhibition(%) [1] [%] | IC50 [3] | Inhibition(%) [3] [%] | other results
C=CC(C)(CCC=C(C)C)OC(=O)C(C)C (centres unmarked) [3,7-dimethylocta-1,6-dien-3-yl 2-methylpropanoate] | 57.1 | 88 |  |  | 
CC(C)=CCCC(C)=CCO [3,7-dimethylocta-2,6-dien-1-ol] | 190 | 18 |  |  | 
CC(C)(C)Cc1cccnc1 [3-(2,2-dimethylpropyl)pyridine] | 117 | 25 |  |  | 
CC(=O)C(C)=CC1C(C)=CCCC1(C)C (centres unmarked) [3-methyl-4-(2,6,6-trimethylcyclohex-2-en-1-yl)but-3-en-2-one] | 120 | 37 | 110 µM | 58 | 
CC1=CCC(CCC(C)C(C)O)C1(C)C (centres unmarked) [3-methyl-5-(2,2,3-trimethylcyclopent-3-en-1-yl)pentan-2-ol] |  |  | 28.8 µM | 32 | 
CC(CCO)CCc1ccccc1 (centres unmarked) [3-methyl-5-phenylpentan-1-ol] |  |  | 1100 µM | 37 | 
CC(=O)C=CC1=C(C)CCC(C)C1(C)C (centres unmarked) [4-(2,5,6,6-tetramethylcyclohexen-1-yl)but-3-en-2-one] | 72.7 | 23 |  |  | 
CC(=O)CCC1=C(C)CCCC1(C)C [4-(2,6,6-trimethylcyclohexen-1-yl)butan-2-one] | 149 | 40 | 118 µM | 36 | % Earthy/Moss Odor [2]: 30.30%
CC(C)CC(O)Cc1ccccc1 (centres unmarked) [4-methyl-1-phenylpentan-2-ol] |  |  | 517 µM | 36 | 
CCCCCCCC1CCCC(=O)O1 (centres unmarked) [6-heptyloxan-2-one] |  |  | 197 µM | 29 | 
CCCCC[C@H]1CCC[C@H]1O [(1~{R},2~{S})-2-pentylcyclopentan-1-ol] |  |  | 195 µM and 147 µM |  | 
CC(=O)OC(C)(C)Cc1ccccc1 [(2-methyl-1-phenylpropan-2-yl) acetate] |  |  | 386 µM | 54 | % Earthy/Moss Odor [2]: 34.00%
C[C@@H]1CC=CCCCCCCCCCC(=O)C1 [(3~{R})-3-methylcyclopentadec-5-en-1-one] | 23.4 | 79 |  |  | IC50 [4]: 53.7 µM
CC(=O)OC1CCC(C(C)(C)C)CC1 (centres unmarked) [(4-{tert}-butylcyclohexyl) acetate] | 93.8 | 79 |  |  | 
O=C1CCCCCCC/C=C/CCCCCCC1 [(9<I>E</I>)-cycloheptadec-9-en-1-one] |  |  |  |  | IC50 [5]: 210 µM; % Inhibition [5]: 97.22%
O=C1CCCCCCCCCCC1 [Clyclododecanone, cyclododecanone] |  |  |  |  | IC50 [5]: 8.79 µM; % Inhibition [5]: 118.47%
CC(CCO)CCc1ccccc1 (centres unmarked) [Compound 3-methyl-5-phenylpentan-1-ol, 3-methyl-5-phenylpentan-1-ol] |  |  |  |  | % Earthy/Moss Odor [2]: 11.30%
O=C1CCC=CCCCCCCCCCC1 [Cyclopentadec-4-en-1-one] |  |  |  |  | IC50 [5]: 156 µM; % Inhibition [5]: 90.98%
O=C1CCCCCCCCCCCCCCO1 [OXACYCLOHEXADECAN-2-ONE] |  |  |  |  | IC50 [5]: 32.1 µM; % Inhibition [5]: 111.31%
CCCCCO [Pentanol, 1-, pentanol] |  |  |  |  | IC50 [5]: 28.3 µM; % Inhibition [5]: 94.31%
CC(C)CC(=O)OCc1ccccc1 [benzyl 3-methylbutanoate] |  |  | 220 µM | 41 | 
CCCCCCCC=CC=O [dec-2-enal] |  |  | 262 µM | 40 | 
CCOC(=O)c1ccccc1C(=O)OCC [diethyl benzene-1,2-dicarboxylate] |  |  | 1580 µM | 32 | 
COC(=O)c1ccccc1NC=CC(C)CCCC(C)(C)O (centres unmarked) [methyl 2-[(7-hydroxy-3,7-dimethyloct-1-enyl)amino]benzoate] |  |  | 213 µM | 103 | 
COC(=O)CCCCCCCC/C=C/C=O [methyl (10E)-12-oxo-10-dodecenoate] |  |  |  | 86 | 
OCCc1ccccc1 [phenylethylol, 2-PHENYLETHANOL] |  |  |  |  | % Earthy/Moss Odor [2]: 47.50%

Source: patent publication US20230233425A1, “USE OF VOLATILE COMPOSITIONS TO LIMIT OR ELIMINATE THE PERCEPTION OF MALODOR” (Firmenich SA, priority 2017, published 2023)
